Data taken from publication PMC12405493, “Selective ubiquitination of drug-like small molecules by the ubiquitin ligase HUWE1” (Nature Communications, 2025).

How the values were obtained:
HUWE1^HECT = target: T1, HUWE1^HECT (Homo sapiens, UniProt Q7Z6Z7); assay: HUWE1^HECT multi-turnover ubiquitination reactions (fluorescent Ub tracer, SDS-PAGE); assay type: biochemical; settings: E2 UBE2L3, varying concentrations
T1 construct: the isolated HECT domain of HUWE1 (HUWE1^HECT); made in house
T1 sequence (Q7Z6Z7 4038-4374 limits assumed): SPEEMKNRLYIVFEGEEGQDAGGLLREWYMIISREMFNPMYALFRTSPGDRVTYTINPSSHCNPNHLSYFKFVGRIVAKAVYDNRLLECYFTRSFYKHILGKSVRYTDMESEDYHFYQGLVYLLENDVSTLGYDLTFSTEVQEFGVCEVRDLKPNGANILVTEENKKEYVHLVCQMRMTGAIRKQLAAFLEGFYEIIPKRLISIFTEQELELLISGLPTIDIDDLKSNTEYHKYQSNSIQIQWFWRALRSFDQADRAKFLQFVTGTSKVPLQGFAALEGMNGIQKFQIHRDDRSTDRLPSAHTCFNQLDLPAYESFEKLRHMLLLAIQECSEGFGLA
Experimental: HUWE1^HECT multi-turnover ubiquitination reactions were performed for 30 minutes (unless stated otherwise) with 200 nM UBA1, 5 μM UBE2L3 or UBE2D3 (as specified), 1 μM HUWE1^HECT and 30 μM Ub in 25 mM HEPES (pH 7.5), 100 mM NaCl, 3 mM MgCl2, and 0.5 mM TCEP. HUWE1^FL multi-turnover ubiquitination reactions included 50 nM UBA1, 2.5 μM UBE2L3, 0.05 μM HUWE1^FL, 0.5 μM MCL1 (or 0.5 μM H2B or 1 μM FOXP3) and 20 μM Ub in 20 mM HEPES (pH 7.5), 100 mM NaCl, 3 mM MgCl2, and 0.5 mM TCEP. All multi-turnover reactions were started by the addition of 1 mM ATP, incubated at 30 °C, quenched with SDS-loading dye. If not stated otherwise, HUWE1^FLautoubiquitination reactions were incubated for 20 minutes. Substrate ubiquitination reactions with MCL1 or H2B were incubated for 10 and 20 min, respectively; those with FOXP3 for 30 min. Those reactions that were monitored by fluorescence contained a fluorescent Ub tracer (IRDye 800CW maleimide; LI-COR)[55] and were monitored using an Odyssey CLx scanner (LI-COR), followed by Coomassie staining. In the fluorescence images, only those marker bands are labeled (in kDa) that are visible by fluorescence; all marker bands are labeled in the Coomassie-stained images. Statistical analyses were performed with Prism 9 v.9.3.1 (GraphPad).

HEK293T cells = assay: LC/MS/MS detection of ubiquitinated compound from cell lysates (Ub pull-down); assay type: cell-based, human; settings: 15 μM, 1 h
Experimental: Samples for LC/MS/MS analyses of the ubiquitinated inhibitors from reconstituted HUWE1^FL-driven reactions were prepared by in-solution trypsin (Mass Spec Grade, Promega) digestion, instead of the gel-based LysC digestion procedure described above. […] In both cases, the samples were reduced and alkylated with 10 mM TCEP and 20 mM iodoacetamide at 37 °C in the dark for 60 min. An equal mixture of Sera-Mag SpeedBeads with hydrophilic and hydrophobic surfaces (GE Healthcare; 1:1 mix (v/v)) was washed twice with water and added to the sample at 50:1(w/w) resin-to-protein ratio. […] The resulting peptides were then dried, dissolved in 5% ACN/0.1% FA (both v/v), and measured on a hybrid quadruple-Obitrap Exploris480 mass spectrometer (Thermo Fisher Scientific) coupled to an Ultimate 3000 UHPLC system (Thermo Fisher Scientific). […]
Sample preparation for LC/MS/MS detection of ubiquitinated compounds from cell lysates was performed according to the following workflow: HEK293T cells at 70% confluency were treated with 15 μM BI8626 or an equal volume of DMSO for 1 h. […] After 20 min incubation on a rotating wheel at 4 °C, the lysate was cleared by centrifugation, the total protein concentrations determined, and the sample (2.3 mg) diluted with 10 mM Tris (pH 7.5), 150 mM NaCl and 0.5 mM EDTA to a final volume of 1 mL. […]

Cc1c(C(=O)Nc2ccc(CN)cc2)ncnc1N1CCC(C#N)(c2ccccc2)CC1 [BI8622]
Inhibition of HUWE1^HECT-driven ubiquitination (HUWE1^HECT): inhibit ubiquitination dose-dependently in the low-micromolar concentration range

NCc1cccc(CNc2ncnc3c(N4CCN(Cc5ccccc5)CC4)ncnc23)c1 [BI8626]
Inhibition of HUWE1^HECT-driven ubiquitination (HUWE1^HECT): inhibit ubiquitination dose-dependently in the low-micromolar concentration range
Compound ubiquitination in cells (targeted MS/MS after Ub pull-down) (HEK293T cells): indeed ubiquitinated in cells
